Measured values reported in publication PMC8235719, “New RAD51 Inhibitors to Target Homologous Recombination in Human Cells” (Genes, 2021).
“Also recorded” adds a separate entry of the source.

Experiments:
Assay type in all cases: cell-based, human
[1] = system: RAD51 expression in U-2 OS IndDR-GFP cells; assay: RAD51 expression level by Western blotting; conditions: 4 µM, 24 h
Description: Protein concentrations in the nuclear and whole-cell extracts were determined by Bradford assay (Bio-Rad), and the equivalent protein amounts were subjected to electrophoresis in 12% SDS-Polyacrylamide gels (29:1) in Tris-Glycine-SDS buffer. After gel-electrophoresis, proteins were transferred to PVDF membranes (Amersham, Piscataway, NJ, USA) using Mini Trans-Blot Cell (BioRad, Hercules, CA, USA) at 80V for 40 min. PVDF membranes were washed in TBS and blocked with a blocking buffer (5% nonfat dry milk in TBS-T) for 1 h. Anti-RAD51 rabbit polyclonal antibody (1:1000, GeneTex, GTX100469), anti-FKBP12 monoclonal mouse antibody (1:100, BD Biosciences; Franklin lakes, NJ, USA, 610808) for the detection of ddSceGR, and anti-nucleolin mouse monoclonal antibody (1:1000, Santa Cruz Biotechnology; Dallas, Texas, sc-17826) were applied overnight in a blocking buffer at 4 °C. […] Signal was detected with SuperSignal West Pico Plus chemiluminescent substrate (Thermo Scientific; Waltham, […], USA) with a G:B0X6 imaging system (Syngene; Bangalore, India). Band intensities were quantified with the GeneTools software (Syngene; Bangalore, India).
IndDR-GFP cells. […] 10 µg of protein lysates were loaded and analyzed by SDS-PAGE. […]

[2] = system: γ-H2A.X foci in U-2 OS IndDR-GFP cells; assay: γ-H2A.X foci formation (immunofluorescence); conditions: indicated concentrations, cisplatin-treated cells
Description: (§1) U-2 OS IndDR-GFP cells were seeded into 8-well polystyrene vessel culture slides at 5 × 10^4 cells/well. The next day, cells were pretreated with B02-iso or 0.1% DMSO (for control cells) for 1 h, followed by the treatment with 5 µM cisplatin for 4 h or left untreated (for control cells). After 4 h of incubation, cells were placed on ice, washed with PBS buffer (twice, 5 min each), pretreated with 0.5% Triton X-100 for 5 min, washed with PBS (twice, 5 min each). Cells were removed from ice and fixed with 4% methanol-free formaldehyde (Pierce; Waltham, […], USA) in PBS for 10 min. Cells were washed with PBS (twice, 5 min each), placed on ice, and permeabilized with 1% Triton X-100 in PBS for 10 min. Cells were removed from ice, washed with PBS (once, 5 min), blocked with a blocking buffer (5% BSA (Bovine Serum Albumin) in PBS) for 30 min, and incubated with rabbit polyclonal RAD51 antibody (1:1000, GeneTex, GTX100469) and mouse monoclonal anti-phospho-histone H2A.X (Ser 139) antibody (1:20,000, clone JBW301, Millipore 05-636) in blocking buffer, containing 0.3% Triton X-100 overnight at 4 °C. […] For foci quantification, 50 cells were chosen for each treatment condition at random, and foci number was counted using ImageJ software. […]

[3] = system: MDA-MB-231 cells; assay: EdU cell proliferation assay, MDA-MB-231; conditions: 24 h
Description: Exponentially growing MDA-MB-231 and MCF 10A cells were seeded into 6-well plates at a density of 1.5 × 10^5 cells/well in the presence of indicated concentrations of B02-iso or 0.1% DMSO (for control cells). After 24 h of incubation, cells were labeled with 10 µM Edu (Invitrogen; Waltham, […], USA) for 1 h or left unlabeled in the control. Cells were harvested and centrifuged at 500× g, 4 °C for 5 min, and cell pellets were washed with PBS supplemented with 1% BSA, spun down, and fixed with 4% methanol-free formaldehyde (Pierce) in PBS for 15 min. Cells were washed with PBS containing 1% BSA, centrifuged 500× g for 5 min. Cell pellets were resuspended in PBS containing 0.1% Triton X-100 and incubated for 15 min for permeabilization. Cells were spun down, resuspended in freshly prepared Edu click labeling solution (1 mM CuSO4, 1.25 µM Alexa Fluor 488 Azide (Invitrogen; Waltham, […], USA), 50 mM ascorbic acid in PBS) and incubated for 30 min in the dark. Cells were washed twice with PBS containing 0.1% Triton X-100, resuspended in the same buffer, and analyzed for Edu incorporation by flow cytometry using the Guava easyCyte system (Millipore; Burlington, VT, USA) with the InCyte software (Millipore; Burlington, VT, USA).

[4] = system: RAD51 foci in U-2 OS IndDR-GFP cells; assay: RAD51 foci formation (immunofluorescence); conditions: 30 µM
Description: as §1

For `O=c1nc(/C=C/c2cccnc2)n(Cc2ccccc2)c2ccccc12` [B02-iso], the RAD51 expression level [1] was “does not change the RAD51 expression level; also recorded: did not change RAD51 expression level”, the “Level of γ-H2A.X foci” value [2] was “did not reduce the level of γ-H2A.X foci” and the “Fraction of DNA-replicating cells (EdU)” value ([3]; MDA-MB-231, 4 µM) was “remained unchanged”. For the same compound, the “Reduction of fraction of DNA-replicating cells (EdU)” value ([3]; MDA-MB-231, 8 µM) was “approximately 20%”, the “RAD51 foci formation, compound alone” value ([4]; 1 h, no cisplatin) was “did not significantly affect RAD51 foci formation” and the “RAD51 foci formation induced by cisplatin” value ([4]; 1 h pretreatment, then 5 µM cisplatin 4 h) was “almost completely eliminated RAD51 foci formation”.
